# Read-outs that look alike come from different tables or passages of the source.
# Legend:
# Strep. faecalis HH 34358 = test: In vitro antibacterial activity (MIC); type: cell-based; details: Enterococcus faecalis, HH34358; Strep. faecalis HH 34358, in vitro
# Method: (§1) The compounds of this invention have antibacterial activity against Gram-positive and Gram-negative organisms. Minimum inhibitory concentrations (MIC's) ranged from 0.4 to >200 μg/ml in in vitro testing.
# S.aureus SK 23390 = test: In vitro antibacterial activity (MIC); type: cell-based; details: Staphylococcus aureus, SK23390
# Method: as §1
# Kleb. pneumo. SK 1200 = test: In vitro antibacterial activity (MIC); type: cell-based
# Method: as §1
# E. coli HH 33779 = test: In vitro antibacterial activity (MIC); type: cell-based; details: Escherichia coli, HH33779
# Method: as §1
# S.aureus HH 127 = test: In vitro antibacterial activity (MIC); type: cell-based; details: Staphylococcus aureus, HH127
# Method: as §1
# S.aureus Villaluz = test: In vitro antibacterial activity (MIC); type: cell-based; details: Staphylococcus aureus
# Method: as §1
# [1] = system: Entero. aerog. ATCC 13048; test: In vitro antibacterial activity (MIC); type: cell-based
# Method: as §1
# E.coli SK 12140 = test: In vitro antibacterial activity (MIC); type: cell-based; details: Escherichia coli, SK12140
# Method: as §1
# Shig. paradys HH 112 = test: In vitro antibacterial activity (MIC); type: cell-based; details: Shig. paradys HH 112, in vitro; read-out: MIC
# Method: as §1
# Kleb. pneumo. SK 4200 = test: In vitro antibacterial activity (MIC); type: cell-based
# Method: as §1
# Proteus morgani 179 = test: In vitro antibacterial activity (MIC); type: cell-based; details: Proteus morgani 179, in vitro
# Method: as §1
# Klebs.pneumo. 4200 = test: In vivo activity (ED50) against Klebs.pneumo. 4200
# E.coli 12140 = test: In vivo activity (ED50) against E.coli 12140
# [2] = S.aureus SK 23390, in vitro, read-out: MIC
# [3] = Kleb. pneumo. SK 1200, in vitro, read-out: MIC
# [4] = E. coli HH 33779, in vitro, read-out: MIC
# [5] = S.aureus HH 127, in vitro, read-out: MIC
# [6] = Entero. aerog. ATCC 13048, in vitro, read-out: MIC
# [7] = E.coli SK 12140, in vitro, read-out: MIC
# [8] = Kleb. pneumo. SK 4200, in vitro, read-out: MIC
# [9] = po, Klebs.pneumo. 4200, p.o., read-out: ED50
# [10] = sc, Klebs.pneumo. 4200, s.c., read-out: ED50
# [11] = Escherichia coli, 12140, po, E.coli 12140, p.o.
# [12] = Escherichia coli, 12140, sc, E.coli 12140, s.c.
Compound,MIC (Strep. faecalis HH 34358) [µg/mL],MIC (S.aureus SK 23390; [2]) [µg/mL],MIC (Kleb. pneumo. SK 1200; [3]) [µg/mL],MIC (E. coli HH 33779; [4]) [µg/mL],MIC (S.aureus HH 127; [5]) [µg/mL],MIC (S.aureus Villaluz) [µg/mL],"MIC [1, 6] [µg/mL]",MIC (E.coli SK 12140; [7]) [µg/mL],MIC (Kleb. pneumo. SK 4200; [8]) [µg/mL],MIC (Proteus morgani 179; read-out: MIC) [µg/mL],ED50 (Klebs.pneumo. 4200; [9]) [mg/kg],ED50 (Klebs.pneumo. 4200; [10]) [mg/kg],ED50 (E.coli 12140; [11]) [mg/kg],ED50 (E.coli 12140; [12]) [mg/kg],further results
"CC1=C(C(=O)O)N2C(=O)C(NC(=O)C(N)c3ccc(OCC(=O)O)cc3)C2SC1 (racemic) [*08016, 7-[DL-α-amino-α-(4'-carboxymethoxyphenyl)acetamido]-3-desacetoxycephalosporanic acid]",> 200,50,25,50,50,> 200,100,50,,,,,,,MIC (Shig. paradys HH 112): 50 µg/mL
"CC1=C(C(=O)O)N2C(=O)C(NC(=O)[C@H](N)c3ccc(OCC(N)=O)cc3)C2SC1 (stereo partly drawn) [Compound No. 00036, 7-[D-α-Amino-α-(4'-carbamylmethoxyphenyl)acetamido]-3-desacetoxycephalosporanic acid]",50,3.1,25,50,3.1,200,100,25,25,,,,,,MIC (Shig. paradys HH 112): 12.5 µg/mL
"N[C@@H](C(=O)NC1C(=O)N2C(C(=O)O)=C(CSc3c[nH]nn3)CSC12)c1ccc(OCC(=O)O)cc1 (stereo partly drawn) [Compound No. 03326, 7-[D-α-Amino-α-(4'-carboxymethoxyphenyl)acetamido]-3-(1,2,3-triazol-4-ylthiomethyl)-3-cephem-4-carboxylic acid]",200,100,3.1,25,12.5,200,25,6.3,6.3,200,17.7,4.6,25,8.4,
"Cc1nnc(SCC2=C(C(=O)O)N3C(=O)C(NC(=O)[C@H](N)c4ccc(SCC(=O)O)cc4)C3SC2)s1 (stereo partly drawn) [Compound No. 03616, 7-[D-α-Amino-α-(4'-carboxymethylthiophenyl)acetamido]-3-(5-methyl-1,3,4-thiadiazol-2-ylthiomethyl)-3-cephem-4-carboxylic acid]",100,6.3,3.1,12.5,6.3,25,25,6.3,1.6,200,16,11.5,14.5,6.2,
"N[C@@H](C(=O)NC1C(=O)N2C(C(=O)O)=C(CSc3c[nH]nn3)CSC12)c1ccc(SCC(=O)O)cc1 (stereo partly drawn) [Compound No. 04726, 7-[D-α-Amino-α-(4'-carboxymethylthiophenyl)-acetamido]-3-(1,2,3,-triazol-4-ylthiomethyl)-3-cephem-4-carboxylic acid]",200,12.5,3.1,12.5,12.5,100,25,25,3.1,,14.5,9.5,46,12.5,MIC (Shig. paradys HH 112): 6.3 µg/mL
"Cn1nnnc1SCC1=C(C(=O)O)N2C(=O)C(NC(=O)[C@H](N)c3ccc(OCC(N)=O)cc3)C2SC1 (stereo partly drawn) [Compound No. 32626, 7-[D-α-Amino-α-(4'-carbamylmethoxyphenyl)acetamido]-3-(1-methyl-1,2,3,4-tetrazol-5-ylthiomethyl)-3-cephem-4-carboxylic acid]",200,6.3,,25,,50,,,6.3,100,> 50,15.5,> 50,8.7,MIC (Kleb. pneumo. SK 1200): 12.5 µg/mL; MIC (S.aureus HH 127): 12.5 µg/mL; MIC [1]: 12.5 µg/mL; MIC (E.coli SK 12140): 12.5 µg/mL
"Cc1nnc(SCC2=C(C(=O)O)N3C(=O)C(NC(=O)[C@H](N)c4ccc(NCC(=O)O)cc4)C3SC2)s1 (stereo partly drawn) [Compound No. 48536, 7-[D-α-Amino-α-(4'-carboxymethylaminophenyl)acetamido]-3-(5-methyl-1,3,4-thiadiazol-2-ylthiomethyl)-3-cephem-4-carboxylic acid]",100,12.5,3.1,6.3,12.5,100,12.5,3.1,1.6,2.5,12.5,7.8,6.4,2,
"CC1=C(C(=O)O)N2C(=O)C(NC(=O)[C@H](N)c3ccc(NCC(=O)O)cc3)C2SC1 (stereo partly drawn) [Compound No. 51436, 7-[D-α-Amino-α-(4'-carboxymethylaminophenyl)acetamido]-3-desacetoxycephalosphoranic acid]",200,,50,25,,200,100,25,,,,,,,MIC (S.aureus SK 23390): 12.5 µg/mL; MIC (Kleb. pneumo. SK 4200): 12.5 µg/mL; MIC (S.aureus HH 127): 12.5 µg/mL; MIC (Shig. paradys HH 112): 25 µg/mL
"Cc1nnc(SCC2=C(C(=O)O)N3C(=O)C(NC(=O)[C@H](N)c4ccc(OCC(=O)O)cc4)C3SC2)s1 (stereo partly drawn) [Compound No. 59216, 7-[D-α-Amino-α-(4'-carboxymethoxyphenyl)acetamido]-3-(5-methyl-1,3,4-thiadiazol-2-ylthiomethyl)-3-cephem-4-carboxylic acid]",100,25,6.3,12.5,6.3,100,12.5,6.3,3.1,200,21.5,4.8,25,9.5,
"Cn1nnnc1SCC1=C(C(=O)O)N2C(=O)C(NC(=O)[C@H](N)c3ccc(SCC(=O)O)cc3)C2SC1 (stereo partly drawn) [Compound No. 70326, 7-[D-α-Amino-α-(4'-carboxymethylthiophenyl)acetamido]-3-(1-methyl-1,2,3,4-tetrazol-5-ylthiomethyl)-3-cephem-4-carboxylic acid]",,,,,,,,,,6.3,4,1.7,11,2.2,"ED50 (Klebs.pneumo. 4200; Klebs.pneumo. 4200, p.o.): 3 mg/kg; ED50 (Klebs.pneumo. 4200; Klebs.pneumo. 4200, s.c.): < 3 mg/kg"
"Cc1nnc(SCC2=C(C(=O)O)N3C(=O)C(NC(=O)[C@H](N)c4ccc(OCC(N)=O)cc4)C3SC2)s1 (stereo partly drawn) [Compound No. 71816, 7-[D-α-Amino-α-(4'-carbamylmethoxyphenyl)acetamido]-3-(5-methyl-1,3,4-thiadiazol-2-ylthiomethyl)-3-cephem-4-carboxylic acid]",25,,6.3,,,25,,6.3,3.1,100,6.2,7.5,12.5,4.5,MIC (E. coli HH 33779): 12.5 µg/mL; MIC (Proteus morgani 179): 200 µg/mL
"Cc1nnc(SCC2=C(C(=O)O)N3C(=O)C(NC(=O)[C@H](N)c4ccc(NCC(N)=O)cc4)C3SC2)s1 (stereo partly drawn) [Compound No. 72546, 7-[D-α-Amino-α-(4'-carbamylmethylaminophenyl)acetamido]-3-(5-methyl-1,3,4-thiadiazol-2-ylthiomethyl)-3-cephem-4-carboxylic acid]",50,,25,50,,50,50,25,,> 200,,,,,MIC (S.aureus SK 23390): 12.5 µg/mL; MIC (Kleb. pneumo. SK 4200): 12.5 µg/mL; MIC (S.aureus HH 127): 12.5 µg/mL
"Cc1nnc(SCC2=C(C(=O)O)N3C(=O)C(NC(=O)[C@H](N)c4ccc(SCC(N)=O)cc4)C3SC2)s1 (stereo partly drawn) [Compound No. 86526, 7-[D-α-Amino-α-(4'-carbamylmethylthiophenyl)acetamido]-3-(5-methyl-1,3,4-thiadiazol-2-ylthiomethyl)-3-cephem-4-carboxylic acid]",50,3.1,6.3,25,6.3,25,100,25,12.5,,10,7.2,42,18,
"CC1=C(C(=O)O)N2C(=O)C(NC(=O)[C@H](N)c3ccc(SCC(=O)O)cc3)C2SC1 (stereo partly drawn) [compound 99316, 7-[D-α-Amino-α-(4'-carboxymethylthiophenyl)acetamido]-3-desacetoxycephalosporanic acid]",> 200,,6.3,50,,100,50,,,> 200,15.5,,42,25,MIC (S.aureus SK 23390): 12.5 µg/mL; MIC (Kleb. pneumo. SK 4200): 12.5 µg/mL; MIC (S.aureus HH 127): 12.5 µg/mL; MIC (E.coli SK 12140): 12.5 µg/mL

# — patent publication US4022895A, “Substituted phenylglycylcephalosporins” (SmithKline Corporation, priority 1975, dated 1977)
